For one assay, the system named is UCP1. The assay is described as follows: UCP1 expression in 3T3-L1 cells. It counts as cell-based. As to conditions: 100 nM, 3 to 5 days during terminal differentiation, vs adipocyte control. On the procedure: (§1) The effect of the Clk1 inhibitor DC677 or DC761 on 3T3-L1 cells was examined. 3T3-L1 cells were incubated with 50 nM TG003 (an inhibitor of Clk1), 100 nM DC677, or 100 nM DC761 for 3 to 5 days. Adipocytes were used as a control. UCP1 expression was determined (results are shown in FIG. 1A and FIG. 2A; RQ is reference quotient). Oil Red O (obtained from Sigma-Aldrich, St. Louis, Mo.) was used to stain triglycerides and lipids, and the levels of Oil Red O were determined by measuring absorbance at 520 nm (results are shown in FIG. 1C and FIG. 2C). MitoTracker™ Green (Thermo Fischer Scientific, Waltham, Mass.) was used to stain mitochondria, and levels were determined by measuring absorbance at 495 nm (results are shown in FIG. 1D and FIG. 2D).

The test system of assay [1] is 3T3-L1 cells. As to the kind of experiment: Oil Red O staining of triglycerides and lipids in 3T3-L1 cells. Type of assay: cell-based. As to conditions: 100 nM, 3 to 5 days during terminal differentiation. As to the method:
as §1

Assay [2] deals with 3T3-L1 cells. As to the kind of experiment: MitoTracker Green staining of mitochondria in 3T3-L1 cells. Conditions: dose of 100 nM. Type of assay: cell-based. On the procedure:
as §1
The effect of the Clk1 inhibitor DC677 on 3T3-L1 cells was examined with fluorescence microscopy. 3T3-L1 cells were cultured in a 12-well plate and differentiated by […] (MDI). The cells were then incubated with insulin, TG003, or DC677. On day 8, the cells were stained with MitoTracker™ Green (Thermo Fischer Scientific, Waltham, Mass.). In FIG. 3, the cell treatment is as follows: (1) insulin as a control; (2) 50 nm TG003 added on day 2; (3) 50 nm TG003 added on day 4; (4) 100 nm DC677 added on day 2; (5) 100 nm DC677 added on day 4; and (6) 100 nm DC677 added on day 6.

For another assay, the system named is PGC1α. As to the kind of experiment: PGC1α expression in 3T3-L1 cells. It counts as cell-based. Conditions: 100 nM, 3 to 5 days during terminal differentiation, vs adipocyte control.
Assay [3] deals with 3T3-L1 cells. The assay is described as follows: Differentiation of 3T3-L1 cells into beige cells. Type of assay: cell-based. Conditions: for differentiation of 3T3-L1 cells into beige cells: 100 nM, 3 to 5 days. On the procedure: as §1
Another assay relates to Clk1. As to conditions: stated as 'may be about'; no test described; cited from earlier work.

Structures are written as SMILES.

With `O=C1Nc2ccc(Br)cc2/C1=C\c1nc2ccccc2c(=O)n1Cc1ccccc1` [DC677, 3-benzyl-2-[(5-bromo-2-oxo-1,2-dihydro-3H-indol-3-ylidene)methyl]-4(3H)-quinazolinone], in the assay on UCP1, the UCP1 expression result is listed as “increased”. Besides, the “lipid storage and lipid droplet size” value with 3T3-L1 cells [1] is “stored fewer lipids in smaller lipid droplets”. Besides, the “mitochondrial biogenesis, effectiveness compared to TG003 at 50 nM” value with 3T3-L1 cells [2] is given as “highly effective”. For the same molecule, the PGC1α expression entry with PGC1α was “increased”. The “performance compared with TG003” value with 3T3-L1 cells [3] (100 nM DC677 vs 50 nM TG003) was “performs equally well to TG003”. Moreover, in the assay with 3T3-L1 cells [3], the “differentiation of 3T3-L1 cells into beige cells” value was “can differentiate into “beige” cells”.

Regarding `CC(=O)Nc1cccc(N2C(=O)c3cccc4cc([N+](=O)[O-])cc(c34)C2=O)c1` [DC761, N-[3-(5-nitro-1,3-dioxo-1H-benzo[de]isoquinolin-2(3H)-yl)phenyl]acetamide], in the assay with UCP1, the UCP1 expression entry was “increased”. Further, the “lipid storage and lipid droplet size” value with 3T3-L1 cells [1] was “stored fewer lipids in smaller lipid droplets”. The PGC1α expression result in the assay with PGC1α was “increased”. Besides, in the assay with 3T3-L1 cells [3], the “differentiation of 3T3-L1 cells into beige cells” value is given as “can differentiate into “beige” cells”.

On to `CCN1/C(=C/C(C)=O)Sc2ccc(OC)cc21` [TG003], for which the IC50 in the assay on Clk1 was […].
